Measurements taken from article PMC5736175, “Nicotinic alpha 7 receptor agonists EVP-6124 and BMS-933043, attenuate scopolamine-induced deficits in visuo-spatial paired associates learning” (PLoS ONE, 2017).
Several values for one entry are separate records, joined by “and”; a condition that tells them apart may be missing. Equal values may be shown once.

What was measured:
[1] = test system: human nAChR α7; parameters: method as in PMID 20959364, PMID 22085888; settings: xenopus oocytes expressing human nAChR α7; cited from earlier work
[2] = test system: human nAChR α7; parameters: method as in PMID 27467081; settings: intrinsic activity; HEK293 cells expressing human nAChR α7; cited from earlier work
[3] = Plasma concentration in vsPAL subjects immediately after completion of testing (LC-MS/MS); settings: individual subjects
Procedure: For all compounds, plasma pharmacokinetic studies were conducted in a separate cohort of cynomolgus monkeys (N = 2–3 subjects per dose) before beginning vsPAL testing to help guide dose selection. Blood samples were obtained with the animals awake and sitting in a primate chair. For most test sessions with BMS-933043 and EVP-6124, plasma samples were also taken from a subset of vsPAL subjects (N = 4–5) immediately after completion of testing (mean (SD) sample collection time = 69.8 (9.8) min post injection).
(§1) Plasma concentrations of test compounds were determined using LC-MS/MS assays. In brief, 50 μL plasma and sample containing compounds was extracted by protein precipitation method with 150 μL acetonitrile containing an internal standard. A 5 μL sample of supernatant was injected into the LC-MS/MS system. Analytes were separated by reversed phase chromatography and detection of each analyte was achieved through selected reaction monitoring mode of mass spectrometry. Samples were quantified by calculated peak area ratio of analyte and internal standard against a calibration curve.

[4] = Plasma pharmacokinetics in satellite animals (LC-MS/MS), 60 min after i.m. dose; settings: individual subjects
Procedure: For all compounds, plasma pharmacokinetic studies were conducted in a separate cohort of cynomolgus monkeys (N = 2–3 subjects per dose) before beginning vsPAL testing to help guide dose selection. Blood samples were obtained with the animals awake and sitting in a primate chair.
as §1

[5] = test system: 5-HT3 receptor; settings: cited from earlier work
[6] = parameters: method as in PMID 25438724; settings: 20 mg dose (maximal DSST effects), cited from earlier work

## Cl.O=C(N[C@H]1CN2CCC1CC2)c1cc2cccc(Cl)c2s1 [EVP-6124, (R)-7-chloro-N-(quinuclidin-3-yl)benzo[b]thiophene-2-carboxamide HCl]
[1]
  maximal peak current, % of the acetylcholine response: 80%
[2]
  net charge relative to acetylcholine: 136%
  peak current response relative to acetylcholine: 32%
[3]; 0.003 mg/kg i.m.
  nM total compound in plasma post session: 0.5 nM and 1.4 nM and 1.6 nM and 1.1 nM and 0.496 nM
[3]; 0.01 mg/kg i.m., row
  nM total compound in plasma post session: 1.526 nM and 1.174 nM and 1.539 nM
[3]; 0.03 mg/kg i.m.
  nM total compound in plasma post session: 4.44 nM and 6.8 nM and 3.56 nM
[3]; 0.10 mg/kg i.m.
  nM total compound in plasma post session: 14.8 nM and 14.9 nM and 11.8 nM and 10.9 nM
[3]; 0.30 mg/kg i.m.
  nM total compound in plasma post session: 76.7 nM and 38.4 nM and 48.3 nM and 47.3 nM
[3]; 1.00 mg/kg i.m.
  nM total compound in plasma post session: 196 nM and 145 nM and 188 nM and 192 nM
[4]; 0.03 mg/kg i.m.
  nM total compound in plasma from satellite animals, 60 min: 4.1 nM and 3.5 nM
[4]; 0.10 mg/kg i.m.
  nM total compound in plasma from satellite animals, 60 min: 9.5 nM
[4]; 0.30 mg/kg i.m.
  nM total compound in plasma from satellite animals, 60 min: 39.6 nM
[4]; 1.00 mg/kg i.m.
  nM total compound in plasma from satellite animals, 60 min: 103.0 nM
[5]
  5-HT3 receptor antagonism: potent 5-HT3 receptor antagonists
[6]
  plasma Cmax: 0.0104 µg/mL
[6]; read-out: plasma Cmax
  Cmax: 0.032 µM
